Assays:
thymocytes = assay: Corticosteroid-induced apoptosis in mouse thymus; format: in vivo
Description: Thymic lymphocytes, or thymocytes, undergo a suicide process known as apoptosis or programmed cell death in response to various stimuli, including ionizing radiation, calcium ionophores, glucocorticoid hormones, and other agents. Apoptosis is also part of the normal physiological process of development and of lymphocyte (and other cell) selection.
Eight male B6D2F1 mice weighing approximately twenty-five grams were given a single injection of either palmitoyldeoxyguanosine (25 mg/kg, i.p.) in a Tween-DMSO vehicle (0.02% Tween and 7.5% DMSO in physiological saline) or vehicle alone. Forty-eight hours later these mice were given an i.p. injection of a long-acting corticosteroid, methylprednisolone acetate (Depo-Medrol; 250 mg/kg). Forty-eight hours following administration of the corticosteroid, all eight of these animals and four additional untreated animals (basals) were sacrificed by cervical dislocation, the thymuses and spleens removed and weighed, and thymic cell number and viability measured by established methods.

[1] = tested on: normal mouse bone marrow cells; assay: Proliferation of bone marrow cells in long-term culture; format: cell-based; conditions: 10 micrograms per ml
Description: Bone marrow cells from the femurs of B6D2F1 mice were used to establish long-term marrow cultures. After four weeks, when the stromal layer was confluent, the culture was treated with microphenolic acid in order to remove all cells from the stroma. New normal bone marrow cells (1×10^5/ml) from the same source were then used to “recharge” the stromal layer. Palmitoyldeoxyguanosine was added to half of the cultures at a concentration of 10 micrograms per ml. […] On days 4 and 7 cells from the culture were removed, washed, and replated in methylcellulose. The number of granulo-monocytic colonies was counted one week later.

female Balb/C mice [2] = assay: Cisplatin-induced myelosuppression; format: in vivo, mouse; conditions: for survival: day 11
Description: A study was conducted to assess the effects of N^2,3′,5′-tripalmitoyldeoxyguanosine (PdG) in reducing the hematologic toxicity of cisplatin. Female Balb/C mice were divided into groups of five animals each per dose per time point. Half of the groups were given a series of three daily doses of PdG (25 mg/kg) by intraperitoneal injection and the other half were treated with the vehicle alone. Twenty-four hours later, the animals were given a single dose of cisplatin by intraperitoneal injection at one of four doses: 8, 11, 12 or 15 mg/kg. Blood samples were taken by retro-orbital eye bleed at four, seven and 11 days after administration of cisplatin.

female Balb/C mice [3] = assay: Survival of mice irradiated with Cobalt 60 gamma radiation; format: in vivo, mouse; conditions: for number of mice surviving 30 days after irradiation over number irradiated: 50 mg/kg i.p. daily 6 days from 24 h after irradiation
[4] = day 4 after cisplatin 8 mg/kg, PdG 25 mg/kg x3 before
[5] = day 4 after cisplatin 11 mg/kg, PdG 25 mg/kg x3 before
[6] = day 4 after cisplatin 12 mg/kg, PdG 25 mg/kg x3 before
[7] = day 4 after cisplatin 15 mg/kg, PdG 25 mg/kg x3 before
[8] = day 7 after cisplatin 8 mg/kg, PdG 25 mg/kg x3 before
[9] = day 7 after cisplatin 11 mg/kg, PdG 25 mg/kg x3 before
[10] = day 7 after cisplatin 12 mg/kg, PdG 25 mg/kg x3 before
[11] = day 7 after cisplatin 15 mg/kg, PdG 25 mg/kg x3 before
[12] = day 11 after cisplatin 8 mg/kg, PdG 25 mg/kg x3 before
[13] = day 11 after cisplatin 11 mg/kg, PdG 25 mg/kg x3 before
[14] = day 11 after cisplatin 12 mg/kg, PdG 25 mg/kg x3 before
[15] = day 11 after cisplatin 15 mg/kg, PdG 25 mg/kg x3 before

Q: `CCCCCCCCCCCCCCCC(=O)Nc1nc2c(ncn2[C@H]2C[C@H](OC(=O)CCCCCCCCCCCCCCC)[C@@H](COC(=O)CCCCCCCCCCCCCCC)O2)c(=O)[nH]1` [PdG, 3′,5′-O-N^2-tripalmitoyl-2′-deoxyguanosine] was tested. Which Cells/Thymus (thymocytes; 25 mg/kg i.p. 48 h before Depo-Medrol 250 mg/kg, 48 h after) did it give?
A: 64 ± 12 ×10^6

Q: And the “Spleen Wt.” value (thymocytes; 25 mg/kg i.p. once, 48 h before Depo-Medrol 250 mg/kg, 48 h after corticosteroid)?
A: 61 ± 11 mg

Q: What about the “% Viable” value (thymocytes; thymic cells, 25 mg/kg i.p. 48 h before Depo-Medrol 250 mg/kg, 48 h after) of the same compound?
A: 87 ± 3 %

Q: And the Cells ([1]; day 1)?
A: 1.9 ± .13 10^6/flask

Q: What about the Cells ([1]; day 3) of the same compound?
A: 2.9 ± .10 10^6/flask

Q: And the CFU-GM/flask ([1]; day 4)?
A: 5123 ± 561

Q: What about the Cells ([1]; day 5) of the same compound?
A: 7.7 ± .2 10^6/flask

Q: And the CFU-GM/flask ([1]; day 7)?
A: 33903 ± 9457

Q: And the Cells ([1]; day 7)?
A: 4.3 ± .15 10^6/flask

Q: And the “effect on red blood cells” value (female Balb/C mice [2]; any time point)?
A: no effect

Q: What about the WBC (female Balb/C mice [2]; day 4 after cisplatin 8 mg/kg, PdG 25 mg/kg i.p. 3 daily doses before) of the same compound?
A: 10.2 ± 1.4 K/μL

Q: And the Lymphocytes (female Balb/C mice [2]; [4])?
A: 8.0 ± 0.9 K/μL

Q: And the Neutrophils (female Balb/C mice [2]; [4])?
A: 1.77 ± 0.3 K/μL

Q: And the Lymphocytes (female Balb/C mice [2]; [5])?
A: 7.9 ± 1.1 K/μL

Q: What about the Neutrophils (female Balb/C mice [2]; [5]) of the same compound?
A: 3.99 ± 0.7 K/μL

Q: What about the WBC (female Balb/C mice [2]; [5]) of the same compound?
A: 7.2 ± 0.6 K/μL

Q: What about the Lymphocytes (female Balb/C mice [2]; [6]) of the same compound?
A: 5.14 ± 1.0 K/μL

Q: What about the Neutrophils (female Balb/C mice [2]; [6]) of the same compound?
A: 1.59 ± 0.3 K/μL

Q: What about the WBC (female Balb/C mice [2]; [6]) of the same compound?
A: 6.9 ± 0.9 K/μL

Q: And the Lymphocytes (female Balb/C mice [2]; [7])?
A: 4.37 ± 0.61 K/μL

Q: What about the Neutrophils (female Balb/C mice [2]; [7]) of the same compound?
A: 2.69 ± 1.3 K/μL

Q: What about the WBC (female Balb/C mice [2]; [7]) of the same compound?
A: 7.1 ± 1.0 K/μL

Q: What about the Lymphocytes (female Balb/C mice [2]; [8]) of the same compound?
A: 5.38 ± 0.71 K/μL

Q: What about the Neutrophils (female Balb/C mice [2]; [8]) of the same compound?
A: 2.74 ± 0.50 K/μL

Q: And the Platelets (female Balb/C mice [2]; [8])?
A: 910 ± 135 K/μL

Q: And the Lymphocytes (female Balb/C mice [2]; [9])?
A: 5.44 ± 0.22 K/μL

Q: And the Neutrophils (female Balb/C mice [2]; [9])?
A: 4.58 ± 0.3 K/μL

Q: What about the Platelets (female Balb/C mice [2]; [9]) of the same compound?
A: 974 ± 49 K/μL

Q: And the WBC (female Balb/C mice [2]; [9])?
A: 9.4 ± 0.83 K/μL

Q: And the Lymphocytes (female Balb/C mice [2]; [10])?
A: 5.14 ± 0.91 K/μL

Q: What about the Neutrophils (female Balb/C mice [2]; [10]) of the same compound?
A: 3.23 ± 0.7 K/μL

Q: And the WBC (female Balb/C mice [2]; [10])?
A: 8.5 ± 0.9 K/μL

Q: And the Lymphocytes (female Balb/C mice [2]; [11])?
A: 2.80 ± 0.44 K/μL

Q: What about the Neutrophils (female Balb/C mice [2]; [11]) of the same compound?
A: 4.06 ± 0.46 K/μL

Q: And the WBC (female Balb/C mice [2]; [11])?
A: 7.0 ± 0.38 K/μL

Q: What about the survival (female Balb/C mice [2]; 12 mg/kg cisplatin (60% of the controls had died)) of the same compound?
A: All

Q: What about the survival (female Balb/C mice [2]; 15 mg/kg cisplatin (all control animals dead)) of the same compound?
A: three of five

Q: And the Lymphocytes (female Balb/C mice [2]; [12])?
A: 7.9 ± 0.5 K/μL

Q: And the Neutrophils (female Balb/C mice [2]; [12])?
A: 1.33 ± 0.32 K/μL

Q: And the Platelets (female Balb/C mice [2]; [12])?
A: 994 ± 29 K/μL

Q: What about the WBC (female Balb/C mice [2]; [12]) of the same compound?
A: 9.3 ± 0.3 K/μL

Q: What about the Lymphocytes (female Balb/C mice [2]; [13]) of the same compound?
A: 7.9 ± 1.23 K/μL

Q: And the Neutrophils (female Balb/C mice [2]; [13])?
A: 1.00 ± 0.37 K/μL

Q: And the Platelets (female Balb/C mice [2]; [13])?
A: 968 ± 47 K/μL

Q: And the WBC (female Balb/C mice [2]; [13])?
A: 8.7 ± 1.0 K/μL

Q: What about the Lymphocytes (female Balb/C mice [2]; [14]) of the same compound?
A: 5.34 ± 0.73 K/μL

Q: What about the Neutrophils (female Balb/C mice [2]; [14]) of the same compound?
A: 3.26 ± 0.48 K/μL

Q: What about the Platelets (female Balb/C mice [2]; [14]) of the same compound?
A: 738 ± 35 K/μL

Q: And the WBC (female Balb/C mice [2]; [14])?
A: 8.7 ± 0.6 K/μL

Q: And the Lymphocytes (female Balb/C mice [2]; [15])?
A: 7.65 ± 0.49 K/μL

Q: What about the Neutrophils (female Balb/C mice [2]; [15]) of the same compound?
A: 2.02 ± 0.68 K/μL

Q: And the Platelets (female Balb/C mice [2]; [15])?
A: 657 ± 113 K/μL

Q: And the WBC (female Balb/C mice [2]; [15])?
A: 9.7 ± 0.3 K/μL

Q: What about the “platelet counts higher than in vehicle-treated control animals” value (female Balb/C mice [2]; day four, cisplatin 8 mg/kg) of the same compound?
A: approximately 30%

Q: With `CCCCCCCCCCCCCCCC(=O)OC[C@H]1O[C@@H](n2cnc3c(=O)[nH]c(N)nc32)[C@H](O)[C@@H]1O` as the compound, how does the “number of mice surviving 30 days after irradiation over number irradiated” value (female Balb/C mice [3]; 725 R) read?
A: 5/5

Q: What about the “number of mice surviving 30 days after irradiation over number irradiated” value (female Balb/C mice [3]; 750 R) of the same compound?
A: 5/5

Q: What about the survival (female Balb/C mice [3]; pretreatment prior to irradiation) of the same compound?
A: improved survival
